Data as given in patent publication US9737511B2, “Method of treating or preventing pathologic effects of acute increases in hyperglycemia and/or acute increases of free fatty acid flux” (Albert Einstein College of Medicine, Inc., priority 2004, dated 2017).

Tests used:
[1] = test system: poly (ADP-ribose)polymerase (PARP); test: PARP activity by 3H-NAD incorporation in aortic endothelial cells; format: cell-based, bovine; conditions: 30 mM glucose plus 100 μM compound, 6 days, FIG. 25
Protocol: Bovine aortic endothelial cells (“BAECs”, passage 4-10) were plated in 10 mm cell culture plates until confluent. Cells were incubated with either 5 mM glucose, 30 mM glucose, 30 mM glucose plus 100 μM deferoxamine, or 30 mM glucose plus 100 μM DMSO for 6 days and medium changed daily.
The 3H-NAD incorporation method was used to assess PARP activity. BAECs were incubated with buffer which was composed of 56 mM Hepes (pH 7.5), 28 mM KCl, 28 mM NaCl, 2 mM MgCl2, 0.01% digitonin, 25 mM NAD^+, and 1 μCi/ml ^3HNAD^+ for 10 min at 37° C. TCA was added to precipitate ribosylated protein and cells were lysed in 2% NaOH. Detection of incorporated ^3H-NAD was performed using a scintillation counter, and PARP activity determined according to the number of ^3H-NAD dpm.

[2] = test system: bovine aortic endothelial cells; test: DNA strand breakage, Comet assay; format: cell-based; conditions: 30 mM glucose plus 100 μM compound, 7 days, FIG. 24
Protocol: Bovine aortic endothelial cells (“BAECs”, passage 4-10) were plated in 10 mm cell culture plates until confluent. Cells were incubated with either 5 mM glucose, 30 mM glucose, 30 mM glucose plus 100 μM deferoxamine (DFO), or 30 mM glucose plus 100 μM DMSO, a hydroxyl radical scavenger, for 7 days. Medium with reagents was changed daily. DNA strand breakage was detected using the Comet assay method.
DNA breakage detection was performed using the Comet Assay kit (Trevigen Gaitherburg Md.). Briefly, single cell electrophoresis was performed on the cometslide for 10 min at 1 volt/cm (measured from one electrode to another). After air-drying, the cometslide was stained with SYBR green. Fluorescence was detected using the Olympus IX70 fluorescent microscope and analysis of the fluorescent density of DNA breakage (length of tail) was performed using Image J software.

[3] = test system: bovine aortic endothelial cells; test: Free intracellular iron measurement (fura-2 AM); format: cell-based; conditions: 30 mM glucose plus 100 μM deferoxamine, 24 hours, FIG. 23C
Protocol: In order to detect intracellular free iron, cells were loaded with fura-2 AM in the dark at 37° C. for 15 min in 1 ml of TBSS containing 5 μM furs-2 AM. After loading, cells were incubated with TBSS with Iml of 20 μM EDTA for 5 min. (Kress et al., “The Relationship between Intracellular Free Iron and Cell Injury in Cultured Neurons, Astrocytes, and Oligodendrocytes”, J. Neuro., 22(14):5848-5855 (2002), which is hereby incorporated by reference in its entirety). Fluorescence was detected using an Olympus IX70 with 10 X planapo objectives, run by I.P. Lab Spectrum on a Power PC computer. Analysis was performed with I.P.Lab Spectrum.
Bovine aortic endothelial cells (“BAECs”, passage 4-10) were plated in 24 well plates at […] in Eagle's MEM containing 10% FBS, essential and nonessential amino acids, and antibiotics. Cells were incubated with either 5 mM glucose, 30 mM glucose, or 30 mM glucose plus 100 μM deferoxamine. Free intracellular iron measurement was performed 24 hours later. To detect intracellular free iron, cells were loaded with fura-2 AM as described above in Example 12.

[4] = test system: streptozotocin-induced diabetic (STZ) and wild type C57 (WT) mice; test: Graded ischemia model in dorsal soft tissue (ischemic flap), angiogenic response to ischemia; format: in vivo, mouse; conditions: for EPC mobilization: STZ mice vs untreated STZ mice, day 7 postischemic insult, FIG. 35
Excerpt: Since the vascular anatomy of the mouse dorsum is precisely known, and the major axial vessels can be easily visualized, one can create a reliable zone of ischemia with a reproducible oxygen gradient in the tissue. This has been confirmed with direct tissue oxygen tension measurements utilizing five reference points (p1-p5) spaced 0.5 cm apart proceeding from the least to most ischemic regions. This also allows for the study of discrete microenvironments of ischemia (Areas A, B, C), with Area A being the least ischemic and Area C being the most ischemic portion of the soft tissue. The design of this model facilitates direct dynamic measurement of oxygen tension, quantitation of tissue survival, with a degree of reproducibility that allows correlation of specific oxygen tensions with changes in gene expression.
Researchers have created a novel model of graded ischemia in the dorsal soft tissue of mice. Since the vascular anatomy of the mouse dorsum is precisely known, and the major axial vessels can be easily visualized, this model creates a reliable zone of ischemia with a reproducible oxygen gradient in the tissue. This has been confirmed with direct tissue oxygen tension measurements utilizing four reference points (p1-p4) spaced 0.5 cm apart, proceeding from the least to most ischemic regions.
The effect of deferoxamine, an iron chelator, on ischemic neovascularization in streptozotocin-induced diabetic (STZ) and wild type C57 (WT) mice was examined. Male C57B16 mice (6-8 weeks old) were made diabetic by daily injections of 50 mg/kg streptozotocin in 0.05 M NaCitrate pH 4.5 after an eight hour fast, for five consecutive days. Two weeks after the initial injection the blood glucose was determined, the diabetic mice were randomized into two groups with equal mean blood glucose levels.
The treatment group was pretreated 7 days prior to having an ischemic flap created on their dorsum and throughout the experiment with daily injections of deferoxamine (10 mg/kg) subcutaneously once per day for 7 days in one group of diabetic animals. […]

diabetic mice (db/db) = test: Diabetic wound healing (wound closure); format: in vivo, mouse; conditions: deferoxamine-treated diabetic mice, FIGS. 33A-B
Excerpt: The effect of reducing the wound healing in diabetic mice (db/db) by treating them with deferoxamine was also studied in the novel model of graded ischemia in the dorsal soft tissue of mice of Example 20. The animals were made diabetics as described in Example 21.

[5] = test system: endothelial nitric oxide synthase (eNOS); test: eNOS activity (3H-citrulline) in aortic endothelial cells; format: cell-based, bovine; conditions: 30 mM glucose plus 100 μM deferoxamine, 24 hour, FIG. 28 bar 3
Protocol: Bovine aortic endothelial cells (“BAECs”, passage 4-10) were plated in 24-well plate (50,000 cell/well). Cells were incubated with either 5 mM glucose, 30 mM glucose alone, or 30 mM glucose plus 100 μM deferoxamine, for 24 hour. Six hours before eNOS activity determination, media without arginine was added to the cells to deplete endogenous arginine.
Measurement of eNOS activity was accomplished as follows. BAECs were incubated with 400 μl of PBS-^3H-arginine (1.5 μci/ml) buffer for 30 min at 37° C. The reaction was stopped by adding IN TCA (500 μl/well, ice cold ), the cells were freeze fractured in liquid nitrogen for 2 min and thawed at 37° C. for 5 min to obtain the cell lysate. After extraction with ether, the cell lysate was adjusted to pH 5.5 using Hepes buffer containing 2 mM EDTA and 2 mM of EGTA, then loaded onto Trisformed DOWEX 50WX8 ion-exchange columns and ^3H-citrulline collected. Detection of ^3H-citrulline was performed using a liquid scintillation counter, and eNOS activity was calculated from the amount of ^3H-citrulline generated.

prostacyclin synthase [6] = test: Prostacyclin synthase activity (6-keto-PGF1α immunoassay) in aortic endothelial cells; format: cell-based, bovine; conditions: 30 mM glucose plus 100 μM deferoxamine, 24 hours, FIG. 26 bar 3
Protocol: Bovine aortic endothelial cells (“BAECs”, passage 4-10) were plated in a 24-well plate (50,000 cell/well). Cells were incubated with either 5 mM glucose, 30 mM glucose, or 30 mM glucose plus 100 μM deferoxamine. The prostacyclin synthase product, PGF-1α, was measured 24 hours later.
Prostacyclin synthase activity measured as the concentration of the stable product of prostacyclin synthase, PGF-1a. A competitive immunoassay method (Correlate-EIA) was used for the quantitative determination of 6-keto-PGF1α. Samples (100 μl) collected from BAECs culture medium were added to the assay plate, which was precoated with antibody (6-keto-PGF1α, EIA conjugate solution). PGF1α concentration was calculated according to a standard curve, and data analysis performed using AssayZap software.

prostacyclin synthase [7] = test: Prostacyclin synthase activity in aortas of diabetic mice; format: in vivo, mouse; conditions: STZ diabetic mice, 10 mg/kg subcutaneously once per day for 7 days, FIG. 27 bar 3
Protocol: (§1) Male C57B16 mice (6-8 weeks old) were made diabetic by daily injections of 50 mg/kg streptozotocin in 0.05 M NaCitrate pH 4.5 after an eight hour fast, for five consecutive days. Two weeks after the initial injection the blood glucose was determined and the diabetic mice were randomized into two groups with equal mean blood glucose levels. Deferoxamine (10 mg/kg) was injected subcutaneously once per day for 7 days in one group of diabetic animals. The aortas were collected. for prostacyclin synthase activity measurement.
Prostacyclin synthase activity measurement A competitive immunoassay method (Correlate-EIA) was used for the quantitative determination of 6-keto-PGF1α. Mouse aortas were washed with PBS and incubated at 37° C. for 3 hours in 400 μl incubation buffer containing 20 mM TRIS buffer (pH 7.5), and 15 μM arachidonic acid. 100 μl of sample was used to measure the PGF 1α.

[8] = test system: bovine aortic endothelial cells; test: Hyperglycemia-induced intracellular reactive oxygen species production (CM-H2DCFDA probe); format: cell-based; conditions: 30 mM glucose plus 250 μM deferoxamine, 72 hrs, FIG. 21 bar 4
Protocol: Cell culture conditions: For ROS measurement, bovine aortic endothelial cells (BAECs, passage 4-10) were plated in 96 well plates at 100,000 cells/well in Eagle's MEM containing 10% FBS, essential and nonessential amino acids, and antibiotics. Cells were incubated with either 5 mM glucose, 30 mM glucose, 30 mM glucose plus 100 micromolar deferoxamine, 30 mM glucose plus 250 micromolar deferoxamine. The deferoxamine was freshly prepared and added to the cells on three consecutive days. The ROS measurements were performed 72 hrs after the initial treatment.
Intracellular reactive oxygen species measurements: The intracellular formation of reactive oxygen species was detected using the fluorescent probe CMH2DCFDA (Molecular Probes). Cells (1×105 ml-1) were loaded with 10iM CM-H2DCFDDA, incubated for 45 min at 37° C., and analyzed in an HTS 7000 Bio Assay Fluorescent Plate Reader (Perkin Elmer) using the HTSoft program. ROS production was determined from an H202 standard curve (10-200 nmol ml-1).

[9] = test system: endothelial nitric oxide synthase (eNOS); test: eNOS activity in aortas of diabetic mice; format: in vivo, mouse; conditions: STZ diabetic mice, 10 mg/kg subcutaneously once per day for 7 days, FIG. 29 bar 3
Protocol: as §1, with “initial injection,” for “initial injection”, “were collected” for “were collected.”, “for endothelial nitric oxide” for “for prostacyclin”, “synthase (eNOS)” for “synthase”
Measurement eNOS activity was accomplished as follows. Aortas were collected in liquid-nitrogen and tissue proteins isolated. Immunoprecipitation methods were used to purify the eNOS from tissue lysates. The purified eNOS immuno-complex was incubated with 100 μl of reaction buffer (3 μM Tetrahydrobiopterin, ImM NAPDH, 2.5 mM CaCl2, 200 U Calmodulin, ^3H-L-arginine 0.2 μCi) for 45 min at 37° C. with rolling. After the incubation, samples were loaded onto Tris-formed DOWEX 50WX8 ion-exchange column and ^3H-citrulline was collected. ^3H-citrulline was quantitated using a liquid scintillation counter and eNOS activity was calculated from the amount of ^3H-citrulline generated.

[10] = Migration of diabetic bone marrow derived, lineage depleted cells toward SDF; format: cell-based, mouse; conditions: cells from STZ mice treated with deferoxamine

Row | Compound | hyperglycemia-induced PARP activation [1] | hyperglycemia-induced DNA strand breakage [2] | hyperglycemia-induced increase in intracellular free iron [3] | EPC mobilization [4] | EPC mobilization ([4]; listed as Deferoxamine) | tissue survival ([4]; STZ mice, 10 mg/kg s.c. daily, FIG. 31B) | blood flow assessed by Doppler ([4]; STZ mice, 10 mg/kg s.c. daily, day 7, FIG. 31A) | post-ischemic neovascularization (CD31 positive blood vessel counts) ([4]; STZ mice, FIG. 32) | bone marrow-derived endothelial precursor cells mobilized in response to ischemia ([4]; deferoxamine-treated diabetic animals, FIGS. 34C-D) | capillary formation in ischemic tissue ([4]; deferoxamine-treated diabetic mice vs untreated, FIG. 34E-F) | oxygenation of ischemic flap by forming new vessels ([4]; deferoxamine-treated diabetic mice, FIGS. 34A-B) | diabetes-induced defect in the normal angiogenic response to ischemia ([4]; diabetic animals treated with deferoxamine) | neovascularization (CD31 positive blood vessel counts) ([4]; wild type mice, FIG. 32) | complete wound closure (diabetic mice (db/db)) | hyperglycemia-induced inhibition of eNOS activity [5] | hyperglycemia-induced inhibition of prostacyclin synthase activity (PGF-1α) (prostacyclin synthase [6]) | diabetes-induced inhibition of prostacyclin synthase activity in aortas (prostacyclin synthase [7]) | hyperglycemia-induced increased ROS (superoxide) production [8] | diabetes-induced inhibition of eNOS activity in aortas [9] | migration toward SDF [10]
1 | C[S+](C)[O-] [DMSO] | Inhibit | Inhibit | – | – | – | – | – | – | – | – | – | – | – | – | – | – | – | – | – | –
2 | CC(=O)N(O)CCCCCNC(=O)CCC(=O)N(O)CCCCCNC(=O)CCC(=O)N(O)CCCCCN [deferoxamine] | prevents | prevents | completely prevents | improved | restores | restored to normal | restored to normal | restored | 1.12% | substantially increase | increase oxygenation | completely prevents | improved neovascularization | 16 days | does not inhibit the activity of this important antiatherogenic enzyme at all | does not inhibit the activity of this important antiatherogenic enzyme at all | does not inhibit the activity of this important antiatherogenic enzyme at all | completely prevents | does not inhibit the activity of this important antiatherogenic enzyme at all | restored to normal
